± gives the expanded uncertainty stated by the source.
What was measured:
[1] = Crystal; DTA
[2] = Molar enthalpy of transition or fusion; settings: Crystal; DSC

Compound	Normal melting temperature [1]	Molar enthalpy of transition or fusion [2]
O=C(O)CCCC(=O)O [1,5-pentanedioic acid]	95.98 ± 0.53 °C	5 ± 0.148 kcal/mol
O=C(O)CCCCC(=O)O [1,6-hexanedioic acid]	153.16 ± 0.53 °C	8.46 ± 0.237 kcal/mol
O=C(O)c1ccccc1 [benzoic acid]	122.93 ± 0.53 °C	4.31 ± 0.131 kcal/mol
